{
  "source": "patent US20210115104A1",
  "about": "“AMYLIN ANALOGUES” (Zealand Pharma A/S, priority 2015, published 2021)",
  "key": {"[1]": {"biological_target": "T1, human calcitonin receptor (hCTR2) (Homo sapiens, UniProt P30988)", "T1 construct": "expressed in transfected cells", "T1 sequence (P30988 25-474)": "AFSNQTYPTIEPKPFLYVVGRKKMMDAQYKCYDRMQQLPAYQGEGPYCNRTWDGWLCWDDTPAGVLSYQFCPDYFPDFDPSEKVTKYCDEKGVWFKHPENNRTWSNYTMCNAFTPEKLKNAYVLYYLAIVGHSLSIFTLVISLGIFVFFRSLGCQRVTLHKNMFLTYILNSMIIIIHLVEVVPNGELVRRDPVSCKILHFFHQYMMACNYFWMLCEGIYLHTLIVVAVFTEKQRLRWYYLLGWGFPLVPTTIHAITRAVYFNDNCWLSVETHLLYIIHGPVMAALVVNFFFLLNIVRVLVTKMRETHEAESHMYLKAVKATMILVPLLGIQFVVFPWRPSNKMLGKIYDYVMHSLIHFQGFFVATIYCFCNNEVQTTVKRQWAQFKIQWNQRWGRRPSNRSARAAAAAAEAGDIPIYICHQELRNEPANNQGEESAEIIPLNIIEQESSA", "assay": "hCTR2 cAMP assay (AlphaScreen) in COS7 cells", "type": "cell-based", "conditions": "cAMP induction, COS7 cells expressing hCTR2; Table 1; read-out: hCTR2 EC50", "in_short": "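cAMP induction, read by AlphaScreen after lysis, gives EC50 values via 4PL curve fitting. Peptides were applied at rising concentrations for 15 min at 37 °C, with IBMX and 0.1% casein in HEPES-buffered Tyrode pH 7.4, to COS7 cells (no endogenous RAMPs) stably expressing human CTR2.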"}, "[2]": {"biological_target": "T2, human amylin receptor 3 (hAMYR3), hCTR2 co-expressed with hRAMP3 (Homo sapiens, UniProt O60896+P30988)", "T2 construct": "expressed in transfected cells", "T2 sequence (P30988 25-474)": "T1 sequence (P30988 25-474)", "T2 sequence (O60896 24-148 partner)": "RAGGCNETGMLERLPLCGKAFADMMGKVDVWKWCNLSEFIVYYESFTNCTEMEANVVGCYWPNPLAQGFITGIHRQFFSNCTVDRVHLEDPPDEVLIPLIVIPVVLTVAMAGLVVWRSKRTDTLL", "assay": "hAMYR3 cAMP assay (AlphaScreen) in COS7 cells", "type": "cell-based", "conditions": "cAMP induction, COS7 cells expressing hAMYR3; Table 1; read-out: hAMYR3 EC50", "in_short": "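EC50 values derive from 4PL curve fits of cAMP (AlphaScreen) in lysates of RAMP-naive COS7 cells stably carrying hCTR2 plus hRAMP3. Peptide dilution series were applied for 15 min at 37 °C in pH 7.4 Tyrode buffer containing 100 µM IBMX and 0.1% casein.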"}, "[3]": {"assay": "Assessment of physical stability (Thioflavin T fibrillation)", "type": "physicochemical", "design": "key: FND = fibrillation not detected; FD = fibrillation detected", "conditions": "1 mg/ml, 40° C., ThT", "in_short": "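Fibrillation lag-time, in hours, taken where regressions of the initial stable phase and the growth phase intersect. ThT (40 μM) fluorescence monitored at 40 °C for 96 h, 10-min reads each preceded by 300 s mixing. Peptide at 1 mg/ml in 50 mM buffers: phosphate or histidine pH 7.0, acetate pH 4.0.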"}, "[4]": {"assay": "Assessment of chemical stability (RP-HPLC normalized purity)", "type": "physicochemical", "conditions": "7 days, 40° C., Table 1", "in_short": "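Purity after 7 days at 40° C is expressed relative to T=0 (set to 100) for each pH. Samples at 0.2 mg/ml, pH 4, 6, 7.5 or 9, analyzed by RP-HPLC with UV 220 nm on C8 (ammonium formate) or C18 (TFA) gradients.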"}},
  "note": "*1 amine or outer side, *2 acyl side, *3 side chain or, on linkers, in order; H or OH if unused. Where a SMILES comes first, the peptide text is derived from it. Bridges are numbered along the chain shown (N, C = ends). [ ]: non-standard residue; d: D form. The star is where a group is joined. C20 diacid = O=C(O)CCCCCCCCCCCCCCCCCCC(=O)*; γGlu = O=C(O)[C@H](CCC(=O)[*:2])N[*:1]; Hyp = O=C(O)[C@@H]1C[C@@H](O)CN1; NMeI = CC[C@H](C)[C@H](NC)C(=O)O; Sar = CNCC(=O)O",
  "data": [
    {"smiles": "CC[C@H](C)[C@@H](C(=O)N[C@@H](CC(C)C)C(=O)N[C@@H](CO)C(=O)N[C@@H](CO)C(=O)N[C@H](C(=O)N[C@@H](CCC(=O)O)C(=O)N[C@H](C(=O)NCC(=O)N[C@@H](CO)C(=O)NCC(=O)N[C@H](C(=O)N1C[C@H](O)C[C@H]1C(N)=O)[C@@H](C)O)C(C)C)[C@@H](C)O)N(C)C(=O)[C@H](C)NC(=O)CN(C)C(=O)[C@H](Cc1ccccc1)NC(=O)[C@H](CO)NC(=O)[C@H](CO)NC(=O)[C@H](CCCNC(=N)N)NC(=O)[C@H](CCC(N)=O)NC(=O)[C@H](CC(C)C)NC(=O)[C@H](Cc1ccccc1)NC(=O)[C@H](Cc1c[nH]cn1)NC(=O)[C@H](C)NC(=O)[C@H](CC(C)C)NC(=O)[C@H](CCCNC(=N)N)NC(=O)[C@H](CC(=O)O)NC(=O)[C@@H](NC(=O)[C@H](C)NC(=O)[C@@H]1CSSC[C@H](NC(=O)[C@H](CCCNC(=N)N)NC(=O)CC[C@H](NC(=O)CCCCCCCCCCCCCCCCCCC(=O)O)C(=O)O)C(=O)N[C@@H](CCC(N)=O)C(=O)N[C@@H]([C@@H](C)O)C(=O)N[C@@H](C)C(=O)N[C@@H]([C@@H](C)O)C(=O)N1)[C@@H](C)O", "note": "[Compound 91, [19CD]-isoGlu-R-C( )-QTAT-C( )-ATDRLAHFLQRSSF-Gly(Me)-A-Ile(Me)-LSSTEVGSGT-Hyp-NH2] ({C20 diacid-γGlu}-RCQTATCATDRLAHFLQRSSF[Sar]A[NMeI]LSSTEVGSGT[Hyp]-NH2; disulfide 2-7)", "values": [
      {"measurement": "EC50", "setting": "[1]", "result": 80, "unit": "pM"},
      {"measurement": "EC50", "setting": "[2]", "result": 170, "unit": "pM"},
      {"measurement": "Fibrillation pH 4.0 (Ac)", "setting": "[3]; 50 mM acetate buffer pH 4.0, 96 hours", "result": "FND"},
      {"measurement": "Fibrillation pH 7.0 (His)", "setting": "[3]; 50 mM histidine buffer pH 7.0, 96 hours", "result": "FND"},
      {"measurement": "Fibrillation pH 7.0 (Phos.)", "setting": "[3]; 50 mM phosphate buffer pH 7.0, 96 hours", "result": "FND"},
      {"measurement": "Normalized purity after 7 days, 40° C., pH 4", "setting": "[4]; pH 4, 0.2 mg/ml", "result": "A (A = >90%)"},
      {"measurement": "Normalized purity after 7 days, 40° C., pH 6", "setting": "[4]; pH 6, 0.2 mg/ml", "result": "A (A = >90%)"},
      {"measurement": "Normalized purity after 7 days, 40° C., pH 7.5", "setting": "[4]; pH 7.5, 0.2 mg/ml", "result": "A (A = >90%)"},
      {"measurement": "Normalized purity after 7 days, 40° C., pH 9", "setting": "[4]; pH 9, 0.2 mg/ml", "result": "A (A = >90%)"}
    ]}
  ]
}
